According to US11578085B2, “Heterocycle-substituted bicyclic azole pesticides” (FMC CORPORATION, priority 2013, dated 2023):
Read-outs that look alike come from different tables or passages of the source.

Assays:
Type in all cases: in vivo
[1] = test system: cotton melon aphid (Aphis gossypii (Glover)); assay: Test D: control of cotton melon aphid on cotton plant (spray, contact and/or systemic); details: 144 h, assessed after 6 days; for mortality at 50 ppm: sprayed at 50 ppm; for mortality at 250 ppm: sprayed at 250 ppm
Method: (§1) Test compounds were formulated using a solution containing 10% acetone, 90% water and 300 ppm X-77® Spreader Lo-Foam Formula non-ionic surfactant containing alkylarylpolyoxyethylene, free fatty acids, glycols and isopropanol (Loveland Industries, Inc. Greeley, Colo., USA). The formulated compounds were applied in 1 mL of liquid through a SUJ2 atomizer nozzle with 1/8 JJ custom body (Spraying Systems Co. Wheaton, Ill., USA) positioned 1.27 cm (0.5 inches) above the top of each test unit. Test compounds were sprayed at the rates indicated, and each test was replicated three times.
For evaluating control of cotton melon aphid (Aphis gossypii (Glover)) through contact and/or systemic means, the test unit consisted of a small open container with a 6-7-day-old cotton plant inside. This was pre-infested with 30-40 insects on a piece of leaf according to the cut-leaf method, and the soil of the test unit was covered with a layer of sand.
Test compounds were formulated and sprayed at 250 and/or 50 ppm. After spraying, the test units were maintained in a growth chamber for 6 days at 19° C. and 70% relative humidity. Each test unit was then visually assessed for insect mortality.

[2] = test system: green peach aphid (Myzus persicae (Sulzer)); assay: Test C: control of green peach aphid on radish plant (spray, contact and/or systemic); details: 144 h
Method: as §1
For evaluating control of green peach aphid (Myzus persicae (Sulzer)) through contact and/or systemic means, the test unit consisted of a small open container with a 12-15-day-old radish plant inside. This was pre-infested by placing on a leaf of the test plant 30-40 aphids on a piece of leaf excised from a culture plant (cut-leaf method). The aphids moved onto the test plant as the leaf piece desiccated. After pre-infestation, the soil of the test unit was covered with a layer of sand.
Test compounds were formulated and sprayed at 250 and/or 50 ppm. After spraying of the formulated test compound, each test unit was allowed to dry for 1 hour and then a black, screened cap was placed on top. The test units were held for 6 days in a growth chamber at 19-21° C. and 50-70% relative humidity. Each test unit was then visually assessed for insect mortality.

[3] = test system: sweetpotato whitefly (Bemisia tabaci (Gennadius)); assay: Test F: control of sweetpotato whitefly on cotton plant (spray, contact and/or systemic); details: 312 h
Method: as §1
For evaluating control of the sweetpotato whitefly (Bemisia tabaci (Gennadius)) through contact and/or systemic means, the test unit consisted of a small open container with a 12-14-day-old cotton plant inside. Prior to the spray application, both cotyledons were removed from the plant, leaving one true leaf for the assay. Adult whiteflies were allowed to lay eggs on the plant and then were removed from the test unit. Cotton plants infested with at least 15 eggs were submitted to the test for spraying.
Test compounds were formulated and sprayed at 250 and/or 50 ppm. After spraying, the test units were allowed to dry for 1 hour. The cylinders were then removed, and the units were taken to a growth chamber and held for 13 days at 28° C. and 50-70% relative humidity. Each test unit was then visually assessed for insect mortality.

[4] = test system: potato leafhopper (Empoasca fabae (Harris)); assay: Test B: control of potato leafhopper on Soleil bean plant (spray, contact and/or systemic); details: 144 h, sprayed at 250 ppm, assessed after 6 days
Method: as §1
For evaluating control of potato leafhopper (Empoasca fabae (Harris)) through contact and/or systemic means, the test unit consisted of a small open container with a 5-6-day-old Soleil bean plant (primary leaves emerged) inside. White sand was added to the top of the soil, and one of the primary leaves was excised prior to application of the test compound.
Test compounds were formulated and sprayed at 250 and/or 50 ppm. After spraying of the formulated test compound, the test units were allowed to dry for 1 hour before they were post-infested with 5 potato leafhoppers (18-to-21-day-old adults). […] Each test unit was then visually assessed for insect mortality.

[5] = sprayed at 50 ppm, assessed after 6 days, read-out: mortality
[6] = sprayed at 250 ppm, assessed after 6 days, read-out: mortality
[7] = sprayed at 250 ppm, assessed after 13 days, read-out: mortality

Row | Compound | mortality at 50 ppm [1] [%] | mortality at 250 ppm [1] [%] | mortality at 50 ppm [2, 5] [%] | mortality at 250 ppm [2, 6] [%] | mortality at 250 ppm [3, 7] [%] | mortality at 50 ppm [2] [%] | mortality at 250 ppm [2] [%] | mortality at 250 ppm [3] [%] | mortality at 250 ppm [4] [%]
1 | CC(C)NC(=O)c1cccc2nn(-c3cccnc3)cc12 [Compound 8, N-(1-methylethyl)-2-(3-pyridinyl)-2H-indazole-4-carboxamide] | ≥ 80 | ≥ 80 | ≥ 80 | ≥ 80 | ≥ 50 | – | – | – | –
2 | O=C(NC1CC1)c1cccc2nn(-c3cccnc3)cc12 [Compound 14, N-cyclopropyl-2-(3-pyridinyl)-2H-indazole-4-carboxamide] | ≥ 80 | ≥ 80 | ≥ 80 | ≥ 80 | – | – | – | – | –
3 | O=C(NC1CCCCC1)c1cccc2nn(-c3cccnc3)cc12 [Compound 16, N-cyclohexyl-2-(3-pyridinyl)-2H-indazole-4-carboxamide] | ≥ 80 | ≥ 80 | ≥ 80 | ≥ 80 | – | – | – | – | –
4 | O=C(NCC(F)(F)F)c1cccc2nn(-c3cccnc3)cc12 [Compound 19, 2-(3-pyridinyl)-N-(2,2,2-trifluoroethyl)-2H-indazole-4-carboxamide] | ≥ 80 | ≥ 80 | ≥ 80 | ≥ 80 | – | – | – | – | –
5 | O=C(NCC1CCCO1)c1ccc2nn(-c3cccnc3)cc2c1 (stereo not shown) [Compound 41, 2-(3-pyridinyl)-N-[(tetrahydro-2-furanyl)methyl]-2H-indazole-5-carboxamide] | ≥ 80 | ≥ 80 | ≥ 80 | ≥ 80 | – | – | – | – | –
6 | COC(=O)NNC(=O)c1ccc2nn(-c3cccnc3)cc2c1 [Compound 42, methyl 2-[[2-(3-pyridinyl)-2H-indazol-5-yl]carbonyl]hydrazinecarboxylate] | ≥ 80 | – | ≥ 80 | ≥ 80 | ≥ 50 | – | – | – | –
7 | O=C(NCC1CC1(F)F)c1ccc2nn(-c3cccnc3)cc2c1 (stereo not shown) [Compound 51, N-[(2,2-difluorocyclopropyl)methyl]-2-(3-pyridinyl)-2H-indazole-5-carboxamide] | ≥ 80 | ≥ 80 | ≥ 80 | ≥ 80 | – | – | – | – | –
8 | CC(F)(F)CNC(=O)c1ccc2nn(-c3cccnc3)cc2c1 [Compound 54, N-(2,2-difluoropropyl)-2-(3-pyridinyl)-2H-indazole-5-carboxamide] | ≥ 80 | ≥ 80 | ≥ 80 | ≥ 80 | – | – | – | – | –
9 | O=C(NCc1ncccn1)c1ccc2nn(-c3cccnc3)cc2c1 [Compound 55, 2-(3-pyridinyl)-N-(2-pyrimidinylmethyl)-2H-indazole-5-carboxamide] | ≥ 80 | ≥ 80 | ≥ 80 | ≥ 80 | – | – | – | – | –
10 | Cc1cnc(CNC(=O)c2ccc3nn(-c4cccnc4)cc3c2)cn1 [Compound 76, N-[(5-methyl-2-pyrazinyl)methyl]-2-(3-pyridinyl)-2H-indazole-5-carboxamide] | ≥ 80 | – | ≥ 80 | ≥ 80 | – | – | – | – | –
11 | CSCCNC(=O)c1cccc2nc(-c3cccnc3)sc12 [Compound 84, N-[2-(methylthio)ethyl]-2-(3-pyridinyl)-7-benzothiazolecarboxamide] | – | – | ≥ 80 | ≥ 80 | – | – | – | – | –
12 | O=C(NCC1CCCO1)c1ccc2nn(-c3ccc[n+]([O-])c3)cc2c1 (stereo not shown) [Compound 462] | – | ≥ 80 | ≥ 80 | ≥ 80 | – | – | – | – | –
13 | O=C(NCCCl)c1ccc2nn(-c3cccnc3)cc2c1 [Compound 463] | – | – | – | – | – | ≥ 80 | ≥ 80 | ≥ 50 | –
14 | O=C(NCC(F)(F)F)c1cccc2nn(-c3ccc[n+]([O-])c3)cc12 [Compound 466] | – | – | – | – | – | – | – | – | ≥ 80
